Article PMC10787698, “Discovery and biocatalytic characterization of opine dehydrogenases by metagenome mining” (Applied Microbiology and Biotechnology, 2024)
Where two headings read alike, the source gives them in different places.

Experiments:
mODH-48 = tested on: T1, mODH-48; assay: NAD(P)H absorbance at […] nm, Michaelis-Menten; assay type: biochemical, hot spring metagenome; settings: pyruvate 10 mM, 100 mM sodium phosphate pH 8.0, 30 °C
T1 construct: N-terminal His-tag, pET14b, E. coli BL21(DE3); codon-optimised synthetic gene; source reads SRR16606022; one of 11 TPA records BK063522-BK063532 (not assigned singly); identical to an obsolete UniParc entry

mODH-45 = tested on: T2, mODH-45; assay: NAD(P)H absorbance at […] nm, Michaelis-Menten; assay type: biochemical, hot spring metagenome; settings: pyruvate 10 mM, 100 mM sodium phosphate pH 8.0, 30 °C
T2 construct: N-terminal His-tag, pET14b, E. coli BL21(DE3); codon-optimised synthetic gene; source reads SRR16606022; one of 11 TPA records BK063522-BK063532 (not assigned singly)

mODH-49 = tested on: T3, mODH-49; assay: NAD(P)H absorbance at […] nm, Michaelis-Menten; assay type: biochemical, hot spring metagenome; settings: pyruvate 10 mM, 100 mM sodium phosphate pH 8.0, 30 °C
T3 construct: N-terminal His-tag, pET14b, E. coli BL21(DE3); codon-optimised synthetic gene; source reads SRR16606022; one of 11 TPA records BK063522-BK063532 (not assigned singly)

mODH-55 = tested on: T4, mODH-55; assay: NAD(P)H absorbance at […] nm, Michaelis-Menten; assay type: biochemical, hot spring metagenome; settings: pyruvate 10 mM, 100 mM sodium phosphate pH 8.0, 30 °C
T4 construct: N-terminal His-tag, pET14b, E. coli BL21(DE3); codon-optimised synthetic gene; source reads SRR16606022; one of 11 TPA records BK063522-BK063532 (not assigned singly)

mODH-582 [1] = tested on: T5, mODH-582; assay: NAD(P)H absorbance at […] nm, Michaelis-Menten; assay type: biochemical, hot spring metagenome; settings: pyruvate 10 mM, 100 mM sodium phosphate pH 8.0, 30 °C
T5 construct: N-terminal His-tag, pET14b, E. coli BL21(DE3); codon-optimised synthetic gene; source reads SRR16606022; one of 11 TPA records BK063522-BK063532 (not assigned singly)

mODH-47 = tested on: T6, mODH-47; assay: NAD(P)H absorbance at […] nm, Michaelis-Menten; assay type: biochemical, hot spring metagenome; settings: pyruvate 10 mM, 100 mM sodium phosphate pH 8.0, 30 °C
T6 construct: N-terminal His-tag, pET14b, E. coli BL21(DE3); codon-optimised synthetic gene; source reads SRR16606022; one of 11 TPA records BK063522-BK063532 (not assigned singly)

mODH-582 [2] = tested on: T5, mODH-582; assay: NAD(P)H absorbance at […] nm, Michaelis-Menten; assay type: biochemical, hot spring metagenome; settings: pyruvate 10 mM, NAD(P)H 0.2 mM, 100 mM sodium phosphate pH 8.0, 30 °C; read-out: L-Phe / KM
purified protein [3] = substrate: N[C@@H](Cc1ccccc1)C(=O)O; assay: purified protein; assay type: biochemical, Arthrobacter sp. 1C; settings: pyruvate 10 mM, NAD(P)H 0.2 mM, 100 mM sodium phosphate pH 8.0, 30 °C
[4] = substrate: NC(=O)C1=CN([C@@H]2O[C@H](COP(=O)(O)OP(=O)(O)OC[C@H]3O[C@@H](n4cnc5c(N)ncnc54)[C@H](O)[C@@H]3O)[C@@H](O)[C@H]2O)C=CC1; assay: purified protein, by the assay type; set-up: Michaelis-Menten kinetics of reductive amination with pyruvate, NAD(P)H consumption by absorbance at 340 nm, 30 °C, pH 8.0
Method: (§1) Enzyme activities were measured spectrophotometrically at 30 °C in 96-well half-area plates in a Thermo Scientific™ Multiskan SkyHigh Microplate Spectrophotometer (Thermo Fisher Scientific Inc., Waltham, MA, USA). Standard assays were carried out by using 15 mM amino acid and 0.2 mM NAD(P)H in 100 mM sodium phosphate buffer (pH = 8.0). The reaction was started by the addition of 10 mM pyruvate. The decrease in absorbance was monitored at 340 nm. Initial velocities (v0) were calculated from the linear section of the plots using an NAD(P)H calibration. For the determination of kinetic constants, amino acid concentrations were varied between 1 and 30 mM, while cofactor concentrations were between 0.04 and 0.5 mM. Depending on the specific activities of each enzyme, enzyme concentrations were fixed between 0.015 and 1.5 µM (Tables S9-S12). Kinetic constants were determined from the Michaelis–Menten plots using GraphPad Prism software (Tables S9-S12, Figures S15-S18). Heat stability experiments were carried out by incubating the enzymes at 40, 50, or 60 °C for 1 h before measuring their specific activities. Nine selected mODH genes as well as the coding sequence of ArODH were codon optimized for E. coli, synthesized by Genescript and cloned into pET14b vector using NdeI and BamHI cloning sites resulting in N-terminal His-tag proteins (for protein and nucleotide sequences see Table S2). Plasmids were transformed into E.coli BL21(DE3) chemically competent cells, and 5 mL overnight cultures were grown in Luria–Bertani (LB) medium supplemented with carbenicillin. Then, 4 mL was added to 500 mL fresh LB medium. The culture was grown at 37 °C to OD = 0.5 and induced by addition of 0.5 mM IPTG. The flasks were then incubated in a shaker at 18 °C overnight. The cells were harvested by centrifugation at 4000 rpm, 4 °C for 30 min. The pellets were resuspended in lysis buffer (50 mM Tris pH = 8.5, 300 mM NaCl, 1 mM benzamidine, 2 mM [compound left out] [compound left out], 1 mM Tris(2-carboxyethyl)phosphine (TCEP), DNase) and lysed by ultrasonication. The suspension was centrifuged at 11,000 rpm, 4 °C for 30 min. The supernatant was loaded onto equilibrated Ni–NTA column and washed with 15 mM imidazole in lysis buffer. The bound protein was eluted with 250 mM imidazole in lysis buffer and then dialyzed in 50 mM Tris pH = 8.5. The resulting solution was aliquoted after addition of 10% glycerol and then stored at − 20 °C until further use. Total protein concentration was determined based on absorption at 280 nm measured on a NanoDrop spectrophotometer. With this method, six mODHs and ArODH could be purified (see Table S2). Three mODHs were not expressed in soluble form in this experimental setting.

[5] = substrate: N[C@@H](Cc1ccccc1)C(=O)O; assay: purified protein, by the assay type; set-up: Michaelis-Menten kinetics of reductive amination with pyruvate, NAD(P)H consumption by absorbance at 340 nm, 30 °C, pH 8.0
Method: as §1

purified protein [6] = substrate: N[C@@H](CC(=O)O)C(=O)O; assay: purified protein; settings: pyruvate 10 mM, NAD(P)H 0.2 mM, 100 mM sodium phosphate pH 8.0, 30 °C
[7] = L-Asp 15 mM, read-out: NADH / KM
[8] = L-Asp 15 mM, read-out: NADPH / KM
[9] = NAD(P)H 0.2 mM, read-out: L-Asp / KM

Molecule: NC(=O)C1=CN([C@@H]2O[C@H](COP(=O)(O)OP(=O)(O)OC[C@H]3O[C@@H](n4cnc5c(N)ncnc54)[C@H](O)[C@@H]3O)[C@@H](O)[C@H]2O)C=CC1 [NADH]
- Km (mODH-48; [7]): 93 ± 15 µM
- Km (mODH-45; [7]): 447 ± 64 µM
- Km (mODH-49; [7]): 1830 ± 423 µM
- Km (mODH-55; [7]): 442 ± 63 µM
- Km (mODH-582 [1]; [7]): 29 ± 11 µM

Molecule: NC(=O)C1=CN([C@@H]2O[C@H](COP(=O)(O)OP(=O)(O)OC[C@H]3O[C@@H](n4cnc5c(N)ncnc54)[C@H](OP(=O)(O)O)[C@@H]3O)[C@@H](O)[C@H]2O)C=CC1 [NADPH]
- Km (mODH-48; [8]): 17 ± 7 µM
- Km (mODH-47; [8]): 93 ± 21 µM
- Km (mODH-45; [8]): 118 ± 24 µM
- Km (mODH-49; [8]): 85 ± 17 µM
- Km (mODH-55; [8]): 68 ± 13 µM
- Km (mODH-582 [1]; [8]): 318 ± 112 µM

Molecule: N[C@@H](CC(=O)O)C(=O)O [compound 3, L-Asp]
- Km (mODH-48; [9]): 500 ± 100 µM
- Km (mODH-47; [9]): 1200 ± 300 µM
- Km (mODH-45; [9]): 21500 ± 5300 µM
- Km (mODH-49; [9]): 15000 ± 2300 µM
- Km (mODH-55; [9]): 1500 ± 200 µM
- Km (mODH-582 [1]; [9]): 24800 ± 4600 µM

Molecule: N[C@@H](Cc1ccccc1)C(=O)O [L-Phe]
- Km (mODH-582 [2]): 32700 ± 4700 µM

B1: ArODH (Arthrobacter sp. 1C) (protein)
chain: MIESKTYAVLGLGNGGHAFAAYLALKGQSVLAWDIDAQRIKEIQDRGAIIAEGPGLAGTAHPDLLTSDIGLAVKDADVILIVVPAIHHASIAANIASYISEGQLIILNPGATGGALEFRKILRENGAPEVTIGETSSMLFTCRSERPGQVTVNAIKGAMDFACLPAAKAGWALEQIGSVLPQYVAVENVLHTSLTNVNAVMHPLPTLLNAARCESGTPFQYYLEGITPSVGSLAEKVDAERIAIAKAFDLNVPSVCEWYKESYGQSPATIYEAVQGNPAYRGIAGPINLNTRYFFEDVSTGLVPLSELGRAVNVPTPLIDAVLDLISSLIDTDFRKEGRTLEKLGLSGLTAAGIRSAVE
notes: N-terminal His-tag, pET14b, E. coli BL21(DE3); codon-optimised synthetic gene
- Km (purified protein [3]): 1400 ± 500 µM
- kcat (purified protein [3]): 861 ± 70 s⁻¹
- kcat/Km (purified protein [3]): 630000 M⁻¹ s⁻¹
- Km [4]: 292 ± 77 µM
- Vmax [4]: 0.11 µmol/min
- kcat [4]: 1240 ± 174 s⁻¹
- Km [5]: 18100 ± 4500 µM
- Vmax [5]: 0.001 µmol/min
- kcat [5]: 11.1 ± 1.5 s⁻¹

B2: ArODH (Arthrobacter sp. 1C; A111R/N198G) (protein)
chain: MIESKTYAVLGLGNGGHAFAAYLALKGQSVLAWDIDAQRIKEIQDRGAIIAEGPGLAGTAHPDLLTSDIGLAVKDADVILIVVPAIHHASIAANIASYISEGQLIILNPGRTGGALEFRKILRENGAPEVTIGETSSMLFTCRSERPGQVTVNAIKGAMDFACLPAAKAGWALEQIGSVLPQYVAVENVLHTSLTNVGAVMHPLPTLLNAARCESGTPFQYYLEGITPSVGSLAEKVDAERIAIAKAFDLNVPSVCEWYKESYGQSPATIYEAVQGNPAYRGIAGPINLNTRYFFEDVSTGLVPLSELGRAVNVPTPLIDAVLDLISSLIDTDFRKEGRTLEKLGLSGLTAAGIRSAVE
- Km (purified protein [6]): 58300 ± 19600 µM
- kcat (purified protein [6]): 2.8 s⁻¹
- kcat/Km (purified protein [6]): 50 M⁻¹ s⁻¹
